What was measured:
Aspergillus niger = experiment: Antimicrobial activity of test formulations in cationic or anionic emulsion, Example 3; format: cell-based; settings: incubated 7 days
Experimental: (§1) A stock solution was prepared containing the active ingredients and was then diluted in either a cationic or anionic test formulation, where the cationic formulation tested was Formulation A described in Example 1 and the anionic formulation tested was Formulation B described in Example 1: […]
(§2) Test formulations comprising the synthetic preservative methylparaben, at a concentration of 0.3% w/w, was used as a positive control.
(§3) The following method of testing for antimicrobial activity was used. 25 gms of emulsion containing 1-1.2% of various preservative was prepared. 0.9 gm aliquots of preservative containing emulsions were dispensed into several culture tubes. These were divided into various groups and inoculated with 0.1 ml of the test organism (bacteria, Candida albicans (10^8 cfu/ml) or Aspergillus niger (10^7 cfu/ml)). After mixing, the tubes were incubated for 48 hours for bacteria and for 7 days days for either C. albicans or A. niger. The cultures were then diluted serially with Drug Neutralizing Fluid (DNF) and 0.5 ml aliquots were plated on TSA and incubated for 24-48 hours (bacteria and C. albicans were incubated at 37° C. and A. niger at 30° C.). In the control group, the emulsion base without the preservatives was inoculated with each organism and processed similarly. The log 10 reduction in colony counts of the test group from the colony counts of control group was determined.

Candida albicans = experiment: as above; format: cell-based; settings: incubated 7 days
Experimental: as §1, §2, §3

S. aureus = experiment: as above; format: cell-based, Staphylococcus aureus; settings: incubated 48 hours
Experimental: as §1, §2
as §3, with “In the control group, the emulsion base without the preservatives was inoculated with each organism and processed similarly.” left out

P. aeruginosa = experiment: as above; format: cell-based, Pseudomonas aeruginosa; settings: incubated 48 hours
Experimental: as §1, §2
as §3, with “In the control group, the emulsion base without the preservatives was inoculated with each organism and processed similarly.” left out

A. niger = experiment: Efficacy of BA, THC and essential oils in anionic emulsion against A. niger, Example 2; format: cell-based, Aspergillus niger; settings: essential oil 0.3% w/w alone or with BA 0.5% w/w and THC 0.05% w/w, incubation 48 hours, average of nine samples
Experimental: 0.9 gm aliquots of preservative containing emulsions were dispensed into several culture tubes. These were divided into various groups and inoculated with 0.1 ml of the test organism (bacteria, Candida albicans (10^8 cfu/ml) or Aspergillus niger (10^7 cfu/ml). After mixing, the tubes were incubated for 48 hours for bacteria t days for either C. albicans or A. niger. The cultures were then diluted serially with Drug Neutralizing Fluid (DNF) and 0.5 ml aliquots were plated on TSA and incubated for 24-48 hours (bacteria and C. albicans were incubated at 37° C. and A. niger at 30° C.). In the control group, the emulsion base without the preservatives was inoculated with each organism and processed similarly.
Various essential oils were used along with BA and THC and incorporated in anionic emulsion and tested against A. niger.

[1] = anionic emulsion (Formulation B)
[2] = cationic emulsion (Formulation A)

SMILES | log reduction from control growth, A. niger (Aspergillus niger; [1]) [log10] | log reduction from control growth, A. niger (Aspergillus niger; [2]) [log10] | log reduction from control growth, C. albicans (Candida albicans; [1]) [log10] | log reduction from control growth, C. albicans (Candida albicans; [2]) [log10] | log reduction from control growth, S. aureus (S. aureus; [1]) [log10] | log reduction from control growth, S. aureus (S. aureus; [2]) [log10] | log reduction from control growth, P. aeruginosa (P. aeruginosa; [1]) [log10] | log reduction from control growth, P. aeruginosa (P. aeruginosa; [2]) [log10] | log10 reduction in cfu, A. niger (A. niger) [log10]
COC(=O)c1ccc(O)cc1 [methyl paraben, methylparaben] | 2.88 | 4.16 | 4.31 | 4.25 | 0.12 | 1.9 | 0.11 | 2.1 | –
Cc1ccc(C(C)C)c(O)c1 [TH, Thymol] | – | – | – | – | – | – | – | – | 0.8
